Assay results taken from the NIST ThermoML archive (doi:10.1016/j.jct.2007.05.011).

Assay: xn = mol fraction of the nth substance listed
Details: 101 kPa, Liquid; for mass density: Vibrating tube method

NCCO.O=CO [2-hydroxyethylammonium formate] + CO
Details	mass density [kg/m3]	speed of sound [m/s]
288.15 K, x2 = 0	1183.57	1733.9
288.15 K, x2 = 0.055	1176.05	1744.5
288.15 K, x2 = 0.098	1169.59	1733.2
288.15 K, x2 = 0.193	1153.03	1703.2
288.15 K, x2 = 0.296	1132.54	1666.2
288.15 K, x2 = 0.399	1108.24	1623.5
288.15 K, x2 = 0.5	1079.69	1573.6
288.15 K, x2 = 0.598	1046.63	1516.4
288.15 K, x2 = 0.701	1005.33	1448.4
288.15 K, x2 = 0.799	953.96	1365.8
288.15 K, x2 = 0.9	887.02	1265.2
288.15 K, x2 = 0.951	844.491	1203.6
290.65 K, x2 = 0	1181.81	1727.4
290.65 K, x2 = 0.055	1174.4	1739.2
290.65 K, x2 = 0.098	1167.93	1727.9
290.65 K, x2 = 0.193	1151.34	1697.7
290.65 K, x2 = 0.296	1130.83	1660.7
290.65 K, x2 = 0.399	1106.5	1617.8
290.65 K, x2 = 0.5	1077.9	1567.7
290.65 K, x2 = 0.598	1044.79	1510.3
290.65 K, x2 = 0.701	1003.42	1441.8
290.65 K, x2 = 0.799	951.962	1358.8
290.65 K, x2 = 0.9	884.894	1257.6
290.65 K, x2 = 0.951	842.26	1195.6
293.15 K, x2 = 0	1180.04	1721.3
293.15 K, x2 = 0.055	1172.74	1734
293.15 K, x2 = 0.098	1166.26	1722.6
293.15 K, x2 = 0.193	1149.65	1692.4
293.15 K, x2 = 0.296	1129.11	1655.3
293.15 K, x2 = 0.399	1104.75	1612.1
293.15 K, x2 = 0.5	1076.11	1561.8
293.15 K, x2 = 0.598	1042.95	1504.3
293.15 K, x2 = 0.701	1001.51	1435.3
293.15 K, x2 = 0.799	949.965	1351.9
293.15 K, x2 = 0.9	882.765	1250.2
293.15 K, x2 = 0.951	840.027	1187.8
295.65 K, x2 = 0	1178.27	1715.1
295.65 K, x2 = 0.055	1171.09	1728.8
295.65 K, x2 = 0.098	1164.6	1717.4
295.65 K, x2 = 0.193	1147.97	1687
295.65 K, x2 = 0.296	1127.4	1649.9
295.65 K, x2 = 0.399	1103	1606.5
295.65 K, x2 = 0.5	1074.32	1556
295.65 K, x2 = 0.598	1041.11	1498.2
295.65 K, x2 = 0.701	999.603	1428.8
295.65 K, x2 = 0.799	947.967	1345.1
295.65 K, x2 = 0.9	880.636	1242.7
295.65 K, x2 = 0.951	837.792	1180
298.15 K, x2 = 0	1176.49	1709
298.15 K, x2 = 0.055	1169.43	1723.6
298.15 K, x2 = 0.098	1162.94	1712.1
298.15 K, x2 = 0.193	1146.28	1681.7
298.15 K, x2 = 0.296	1125.68	1644.5
298.15 K, x2 = 0.399	1101.26	1600.9
298.15 K, x2 = 0.5	1072.54	1550.2
298.15 K, x2 = 0.598	1039.27	1492.1
298.15 K, x2 = 0.701	997.697	1422.3
298.15 K, x2 = 0.799	945.97	1338.3
298.15 K, x2 = 0.9	878.505	1235.3
298.15 K, x2 = 0.951	835.555	1172.1
300.65 K, x2 = 0	1174.71	1702.9
300.65 K, x2 = 0.055	1167.77	1718.4
300.65 K, x2 = 0.098	1161.28	1706.9
300.65 K, x2 = 0.193	1144.6	1676.4
300.65 K, x2 = 0.296	1123.97	1639
300.65 K, x2 = 0.399	1099.51	1595.3
300.65 K, x2 = 0.5	1070.75	1544.4
300.65 K, x2 = 0.598	1037.43	1486.1
300.65 K, x2 = 0.701	995.792	1415.9
300.65 K, x2 = 0.799	943.973	1331.5
300.65 K, x2 = 0.9	876.371	1227.9
300.65 K, x2 = 0.951	833.316	1164.4
303.15 K, x2 = 0	1172.94	1696.8
303.15 K, x2 = 0.055	1166.12	1713.2
303.15 K, x2 = 0.098	1159.62	1701.7
303.15 K, x2 = 0.193	1142.91	1671.1
303.15 K, x2 = 0.296	1122.26	1633.6
303.15 K, x2 = 0.399	1097.77	1589.7
303.15 K, x2 = 0.5	1068.96	1538.6
303.15 K, x2 = 0.598	1035.59	1480
303.15 K, x2 = 0.701	993.884	1409.5
303.15 K, x2 = 0.799	941.97	1324.7
303.15 K, x2 = 0.9	874.236	1220.6
303.15 K, x2 = 0.951	831.073	1156.6
305.65 K, x2 = 0	1171.16	–
305.65 K, x2 = 0.055	1164.47	–
305.65 K, x2 = 0.098	1157.95	–
305.65 K, x2 = 0.193	1141.23	–
305.65 K, x2 = 0.296	1120.55	–
305.65 K, x2 = 0.399	1096.02	–
305.65 K, x2 = 0.5	1067.17	–
305.65 K, x2 = 0.598	1033.75	–
305.65 K, x2 = 0.701	991.972	–
305.65 K, x2 = 0.799	939.967	–
305.65 K, x2 = 0.9	872.095	–
305.65 K, x2 = 0.951	828.823	–
